Experimental data published in US6924415B2 (Board of Regents, The University of Texas System, priority 2001, dated 2005).

Key:
[1] = system: ERK5; assay: ERK5 immunoprecipitation kinase assay (GST-MEF2C substrate) after treatment of cardiomyocytes; type: cell-based; conditions: at 60 min; 0.3M sorbitol or 200 μM H2O2; serum-deprived neonatal rat cardiomyocytes
Method: Top, ERK5 was immunoprecipitated from 200 μg of cellular lysate with an antibody specific for the carboxyl-terminal 20 amino acids. Kinase assays were performed with immunoprecipitated ERK5 using GST-MEF2C substrate in the presence of [γ-^32P]-ATP. GST-MEF2C phosphorylation was detected by autoradiography after SDS-PAGE. Middle, immunoblotting was performed on immunoprecipitated material using rabbit anti-ERK5 antibody. Bottom, levels of ^32P-phosphorylated GST-MEF2C were quantitated with a Phosphor Imager.
Following incubation for 30 min at 30° C., samples were separated by SDS-PAGE and transferred to a polyvinylidene difluoride (PVDF) membrane. The level of ^32P-labeled GST-fusion protein on the membrane was analyzed using a Phosphor Imager (Molecular Dynamics). The membrane was then immunoblotted with anti-ERK5 rabbit polyclonal antibody (StressGen) at a final concentration of 150 ng/ml and proteins were visualized using a chemiluminescence system (Santa Cruz).
Eighteen hours after plating, cells were changed into serum-free media and either incubated for an additional forty-eight hours prior to treatment with hypertrophic agents or infected with adenovirus at a multiplicity of infection of 100.
Following treatment, cardiomyocytes were harvested and ERK5 immunoprecipitation (IP) kinase assays were performed with a GST-MEF2C substrate.

[2] = system: ERK5; conditions: Kamakura et al., 1999; cited from earlier work
[3] = system: neonatal rat cardiomyocytes; assay: Morphometric analysis of cardiomyocytes (anti-sarcomeric α-actinin staining); type: cell-based; design: Area / Major axis / Minor axis / Major/Minor: dose or concentration left out as unconfirmed; conditions: for Area / Major axis / Major/Minor / Minor axis: virus moi 100, PE or LIF (1000 units/ml) where indicated, mean ± SD
[4] = system: skeletal α-actin; assay: RNA dot blot, fetal gene expression in cardiomyocytes: skeletal α-actin; type: cell-based; conditions: Rattus norvegicus, Cardiomyocyte; Adβ-gal-infected cells treated with LIF (1000 units/ml) or PE (50 μM) 24 hours; relative to uninfected untreated cells
Method: FIGS. 4A-B. MEK5 signaling contributes to the regulation of cardiomyocyte fetal gene expression by PE and LIF. (FIG. 4A) Cardiomyocytes were either not infected (−) or infected with MEK5WT, MEK5KM or β-gal adenoviruses at an moi of 20 and serum-deprived. Thirty-six hours post-infection, cells were either not treated or treated with 50 μM PE (black bar) or 1000 units/ml LIF (white bar) for an additional 24 hours. RNA was prepared and used for dot blots with oligonucleotide probes specific for skeletal α-actin, ANF or BNP. Signal intensity was quantitated using a Phosphor Imager. The average fold induction±SD of three independent experiments is shown. “-fold” induction is relative to uninfected cells without PE or LIF treatment. (FIG. 4B) Cardiomyocytes were either not infected or infected with MEK5DD or β-gal adenoviruses at an moi of 20 and serum-deprived. Forty-eight hours post-infection, the cells were harvested and RNA was prepared. Transcript levels for α-skeletal actin, ANF or BNP were determined as described in FIG. 4A. […]
To determine whether elevated MEK5 could also transduce signals that regulate fetal gene expression, the inventors treated cardiomyocytes infected with AdMEK5WT, AdMEK5KM or Ad[…]-gal with LIF or PE and analyzed expression of atrial natriuretic factor (ANF), brain natriuretic peptide (BNP) and skeletal α-actin (FIG. 4A). […]

**Q.** For OO [H2O2], which “activation of ERK5 (phosphorylation of GST-MEF2C)” value [1] is on record?
**A.** Its value is 5 fold.

**Q.** With COc1cccc(-c2cc(=O)c3ccccc3o2)c1N [PD098059] as the compound, how does the “inhibition of activation of ERK5” value [2] read?
**A.** The value was “inhibit activation of ERK5”.

**Q.** Which Area [3] does the source give for CNC[C@H](O)c1cccc(O)c1 [PE, phenylephrine] here?
**A.** Its Area is 5745 ± 1560 μm^2.

**Q.** What about the Major axis [3] of the same compound?
**A.** The Major axis was 110 ± 20 μm.

**Q.** And the Major/Minor [3]?
**A.** Its Major/Minor is 1.71 ± 0.37.

**Q.** What about the Minor axis [3] of the same compound?
**A.** Its Minor axis is 66 ± 12 μm.

**Q.** What about the fold induction at 50 µM [4] of the same compound?
**A.** The fold induction at 50 µM was 4 to 5.

**Q.** For N#CC(=C(/N)Sc1ccccc1N)/C(C#N)=C(\N)Sc1ccccc1N [U0126], which “inhibition of activation of ERK5” value [2] is on record?
**A.** The value was “inhibit activation of ERK5”.

**Q.** With OC[C@@H](O)[C@@H](O)[C@H](O)[C@@H](O)CO [sorbitol] as the compound, how does the “activation of ERK5 (phosphorylation of GST-MEF2C)” value [1] read?
**A.** Its value is 8 fold.

**Q.** What does the source list for “LIF: IL-6 family cytokine, leukemia inhibitory factor”?
**A.** Area [3]: 3586 ± 1090 μm^2; Major axis [3]: 144 ± 36 μm; Major/Minor [3]: 5.06; Minor axis [3]: 33 ± 12 μm; cardiomyocyte elongation (morphology) ([3]; α-actinin staining): induced dramatic elongation
